In EP1727814B1, “NUCLEOSIDE ANALOGUES WITH ANTIVIRAL ACTIVITY” (Universita' Degli Studi Di Catania, priority 2004, dated 2005):

Legend:
HIV-1 = test: Anti-HIV activity in CEM cells, p24 ELISA in supernatant
Protocol: The strain HIV-1 mixed with HIV-IIIB produced in chronically infected cells of lymphoid origin H-9 and therefore capable of growing the virus stably in a culture, was used to assay the anti-HIV activity. Viral inoculation was prepared by low speed centrifugation (3000 rpm) of the supernatant from the line producing the virus and by subsequent ultracentrifugation (40,000 rpm). The concentrated virus was titrated in TCID 50%/ml (units infecting 50% of the cultures). Cells from the lymphoid T-cell line, CEM, were used as cells to infect. The target cells were placed in contact with various quantities of TCID 50% of titrated virus, in an interval ranging from a MOl (multiplicity of infection) of 0.0001 and 0.1 TCID 50%/cell.
The cultures were kept for 7 days at 37°C in the presence of fetal bovine serum 2%. After 2-4 days of culture the medium was removed and replaced with fresh medium to which the compounds in question were again added.
After seven days of setting up the culture, the infection was evaluated using the ELISA method, measuring the production of HIV-1 p24 protein in the supernatant of infected cultures, treated and untreated.

RT of avian retrovirus = test: Inhibition in vitro of retroviral reverse transcriptase (cDNA synthesis, 32P incorporation, gel electrophoresis); type: biochemical; conditions: after preincubation with PBMC lysates
Text: In addition to the tests on cells susceptible to infection by human retroviruses, an assay was set up to highlight the capacity of the compounds A, B and C to inhibit in vitro the activity of a retroviral reverse transcriptase (RT). In short, the assay is based on the principle that starting from an RNA template, it is possible to evaluate the effect of inhibition of the capacity of the RT to synthesise cDNA, by identifying the cDNA fragment of neosynthesis, following gel electrophoretic run, thanks to incorporation of a nucleotide precursor labelled with phosphorus 32 (P32). […] As in order to be utilisable by the RT, the nucleoside analogues must be transformed into their triphosphate form, the compounds in question were placed in contact with cell protein extracts containing kinases capable of inducing phosphorylations. For this purpose protein extracts were used, obtained by lysis from a million PBMC previously stimulated in 48h of culture with PHA. The nucleoside compounds were incubated in ice for one hour with the lysates. After incubation the samples were taken to 95°C in order to inactivate the cellular enzymes present in the lysates. […]

HSV-1, strain "F" = test: Plaque reduction assay in Vero cells; type: cell-based, herpes simplex type 1 (HSV-1); conditions: Human alphaherpesvirus 1; HSV-1, Vero cells, 72h; read-out: EC50 (concentration capable of reducing the formation of plaques by 50%)
Protocol: (§1) To assay the activity of the compounds also towards herpes virus infections, the model for in vitro transmission of herpes simplex type 1 (HSV-1) and of herpes simplex type 2 (HSV-2) to permissive cells of the Vero cell line and plaque reduction assay were used. Vero cells were transferred and cultivated for 24h at 37°C in six-well plates for the cultures to reach confluence. After removal of the culture medium in the wells, a suspension was added containing 100 plaque forming units (PFU) of HSV-1, strain "F", or HSV-2, strain "G" in 100 µl of medium. After one hour of incubation the appropriate quantities of compounds were added diluted in culture medium with the addition of serum 2% and methylcellulose 0.8% to obtain final concentrations of the compounds ranging from 1 µM to 400 µM. The cultures were then incubated for 72h, the medium was removed from the wells and stained with crystal violet 0.8%. After removing the wash liquid, the plates were left to dry and the number of plaques was determined. Acyclovir was used as the positive reference control. A double assay was performed and the values of EC50 (concentration capable of reducing the formation of plaques by 50%) were calculated by extrapolating the mean number of plaques from the plot towards the corresponding concentrations of the compounds.

HSV-2, strain "G" = test: Plaque reduction assay in Vero cells; type: cell-based, herpes simplex type 2 (HSV-2); conditions: Human alphaherpesvirus 2; HSV-2, Vero cells, 72h; read-out: EC50 (concentration capable of reducing the formation of plaques by 50%)
Protocol: as §1

HTLV-1 = test: Inhibition of HTLV-1 transmission to lymphomonocytes by co-cultivation (DNA-PCR, RT-PCR, Tax Western blot); type: cell-based, HTLV-1 (human T lymphotropic retrovirus type 1); conditions: lowest concentrations (5µM and 1 µM)
Protocol: (§2) To assay the capacity to inhibit transmission, lymphomonocytes of adult peripheral blood were separated by density gradient centrifugation and then infected with HTLV-1 by co-cultivation with a chronically infected line that produces viruses, following irradiation of the donor cells (Miyoshi et al. Nature 1981, 296: 770-772).
(§3) The assayed nucleoside analogues (compounds A, B and C) were added at different concentrations at the moment of infection and the treatment was repeated at 3, 7 and 10 days from the first exposure.
The infection was monitored by verifying that the cells treated had become infected, compared to untreated controls, four weeks after infection. The infection was determined by monitoring the presence of proviral DNA and the viral RNA expression, by DNA-PCR and RT-PCR assay respectively. With these techniques it is possible to amplify and highlight the viral genome of HTLV-1 integrated into the host cell, that is virus-specific RNA-messengers, by the use of specific oligonucleotides for viral regions.
For further evaluation of the infection the viral protein expression of HTLV-1 Tax was also highlighted using Western blot analysis with specific monoclonal antibodies.

[1] = tested on: lymphomonocytes of adult peripheral blood; test: Proliferative response of infected and uninfected lymphomonocyte cultures; type: cell-based; conditions: lowest concentrations (5µM and 1 µM)
Protocol: as §2, §3
Moreover, the infected and uninfected cultures, treated or untreated with the compounds in question, were assayed to determine the proliferative response during infection, in order to verify, in addition to the antiviral effect also any antiproliferative effect with regard to the infected cultures.

[2] = Human immunodeficiency virus 1, CCRF-CEM, 168 h, read-out: inhibition of the production of p24 in the supernatant of infected cultures

| SMILES | inhibition at 0.004 µM (HIV-1; [2]) [%] | inhibition at 0.04 µM (HIV-1; [2]) [%] | inhibition at 0.4 µM (HIV-1; [2]) [%] | inhibition of RT activity (RT of avian retrovirus; 0.1 and 10 µM) | EC50 (HSV-1, strain "F") [µM] | EC50 (HSV-2, strain "G") [µM] | protection from the infection (HTLV-1) | inhibition of the production of p24 in the supernatant of infected cultures (HIV-1; 0.004 µM, CEM cells, 7 days) | inhibition of RT activity (RT of avian retrovirus; 0.1, 1 and 20 µM) | antiproliferative action [1] |
| --- | --- | --- | --- | --- | --- | --- | --- | --- | --- | --- |
| Cc1cn([C@H]2C[C@H](N=[N+]=[N-])[C@@H](CO)O2)c(=O)[nH]c1=O [AZT, zidovudine, reference compound] | 60 | 80 | 98 | capable of inhibiting RT activity | – | – | – | – | – | – |
| CCOP(=O)(CC1CC(n2ccc(N)nc2=O)ON1C)OCC (stereo not shown) [Compound A] | – | 45 | 70 | – | 48 | 72 | – | – | – | – |
| CCOP(=O)(CC1CC(n2cc(C)c(=O)[nH]c2=O)ON1C)OCC (stereo not shown) [Compound B] | – | 50 | 70 | – | 62 | 78 | – | – | – | – |
| CCOP(=O)(CC1CC(n2cc(F)c(=O)[nH]c2=O)ON1C)OCC (stereo not shown) [Compound C] | – | 60 | 75 | – | 34 | 56 | total protection | did not cause inhibition | capable of inhibiting RT activity | poor or no antiproliferative action |
| Nc1nc2c(ncn2COCCO)c(=O)[nH]1 [acyclovir, Acyclovir, reference compound] | – | – | – | – | 14 | 32 | – | – | – | – |
